Laboratory results reported in patent US11413264B2, “Carbamoyl phenylalaninol analogs and uses thereof” (Jazz Pharmaceuticals Ireland Limited, priority 2017, dated 2022).
Where a name gives a salt, the structure may show the parent alone. Read-outs that look alike come from different tables or passages of the source.

Assays:
[1] = molecular target: T1, D2L dopamine receptor (D2L) (Homo sapiens, UniProt P14416); assay: Competitive radioligand binding assay, D2L (antagonist radioligand); settings: compound at 10 μM
T1 construct: expressed in transfected cells; host or cells: HEK-293 cells (membrane fractions)
Procedure: (§1) Compounds of the invention were tested for pharmacological activity in comparison to APC. Eight binding assays were carried out to provide a binding profile for each compound, including binding to dopamine transporter (DAT), norepinephrine transporter (NET), serotonin (5-HT) transporter (SERT), alpha2A adrenergic receptor (Alpha2A), alpha2C adrenergic receptor (Alpha2C), D2S dopamine receptor (D2S), D2L dopamine receptor (D2L), and vesicular monoamine transporter (VMAT2). Competitive binding assays using a radiolabeled ligand were carried out with each compound at 10 μM. The radioligand for each target was as follows: DAT—BTCP, NET—nisoxetine, SERT—imipramine, Alpha2A—yohimbine, Alpha2C—yohimbine, D2S—7-OH-DPAT, D2L—methylspiperone, VMAT2—tetrabenazine. The source of the receptors and transporters were prepared cell membrane fractions.

[2] = molecular target: T2, dopamine transporter (DAT) (Homo sapiens, UniProt Q01959); assay: Competitive radioligand binding assay, dopamine transporter (antagonist radioligand); settings: compound at 10 μM; for binding to the dopamine transporter (in words): summary
T2 construct: expressed in transfected cells; host or cells: CHO cells (membrane fractions)
Procedure: as §1

[3] = molecular target: T3, D2S dopamine receptor (D2S) (Homo sapiens, UniProt P14416); assay: Competitive radioligand binding assay, D2S (agonist radioligand); settings: compound at 10 μM
T3 construct: expressed in transfected cells; host or cells: HEK-293 cells (membrane fractions)
Procedure: as §1

[4] = molecular target: T4, vesicular monoamine transporter (VMAT2) (Rattus norvegicus, UniProt Q01827); assay: Competitive radioligand binding assay, VMAT2 transporter (antagonist radioligand); settings: compound at 10 μM
T4 construct: Rat brain; from tissue; host or cells: rat brain minus cerebellum, membrane fraction
Procedure: as §1

[5] = molecular target: T5, serotonin (5-HT) transporter (SERT) (Homo sapiens, UniProt P31645); assay: Competitive radioligand binding assay, 5-HT transporter (antagonist radioligand); settings: compound at 10 μM
T5 construct: expressed in transfected cells; host or cells: CHO cells (membrane fractions)
Procedure: as §1

[6] = molecular target: T6, norepinephrine transporter (NET) (Homo sapiens, UniProt P23975); assay: Competitive radioligand binding assay, norepinephrine transporter (antagonist radioligand); settings: compound at 10 μM; for binding to the norepinephrine transporter (in words): summary
T6 construct: expressed in transfected cells; host or cells: CHO cells (membrane fractions)
Procedure: as §1

[7] = molecular target: T7, alpha2A adrenergic receptor (Alpha2A) (Homo sapiens, UniProt P08913); assay: Competitive radioligand binding assay, α2A (antagonist radioligand); settings: compound at 10 μM
T7 construct: expressed in transfected cells; host or cells: CHO cells (membrane fractions)
T7 sequence (P08913 1-465): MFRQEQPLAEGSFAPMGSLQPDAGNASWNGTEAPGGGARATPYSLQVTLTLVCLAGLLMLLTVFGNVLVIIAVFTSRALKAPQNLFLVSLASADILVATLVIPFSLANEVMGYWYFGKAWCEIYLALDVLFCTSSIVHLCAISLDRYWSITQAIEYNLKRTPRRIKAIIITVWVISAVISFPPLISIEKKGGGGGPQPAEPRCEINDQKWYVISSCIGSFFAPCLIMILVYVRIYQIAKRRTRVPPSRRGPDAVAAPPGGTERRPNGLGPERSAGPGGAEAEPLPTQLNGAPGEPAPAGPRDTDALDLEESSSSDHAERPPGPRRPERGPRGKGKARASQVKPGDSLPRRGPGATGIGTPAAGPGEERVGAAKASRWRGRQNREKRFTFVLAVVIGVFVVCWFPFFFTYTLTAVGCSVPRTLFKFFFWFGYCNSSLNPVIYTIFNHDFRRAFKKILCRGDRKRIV
Procedure: as §1

[8] = molecular target: T8, alpha2C adrenergic receptor (Alpha2C) (Homo sapiens, UniProt P18825); assay: Competitive radioligand binding assay, α2C (antagonist radioligand); settings: compound at 10 μM
T8 construct: expressed in transfected cells; host or cells: CHO cells (membrane fractions)
T8 sequence (P18825 1-462): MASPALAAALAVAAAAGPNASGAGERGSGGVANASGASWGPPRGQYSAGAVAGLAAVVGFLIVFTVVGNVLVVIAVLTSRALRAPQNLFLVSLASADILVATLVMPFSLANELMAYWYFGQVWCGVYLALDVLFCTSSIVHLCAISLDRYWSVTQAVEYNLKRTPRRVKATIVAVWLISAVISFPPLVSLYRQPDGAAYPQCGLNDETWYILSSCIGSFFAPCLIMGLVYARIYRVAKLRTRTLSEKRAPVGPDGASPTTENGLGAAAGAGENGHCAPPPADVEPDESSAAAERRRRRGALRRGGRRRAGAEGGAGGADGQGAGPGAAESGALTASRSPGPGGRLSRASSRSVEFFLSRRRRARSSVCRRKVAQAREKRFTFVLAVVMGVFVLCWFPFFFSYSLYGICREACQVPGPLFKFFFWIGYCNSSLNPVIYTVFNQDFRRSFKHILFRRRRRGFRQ
Procedure: as §1

[9] = D2L, 1st individual result, read-out: % inhibition of control specific binding, 1st
[10] = D2L, 2nd individual result, read-out: % inhibition of control specific binding, 2nd
[11] = D2L, mean, read-out: % inhibition of control specific binding, Mean
[12] = [3H]methyl-spiperone 0.3 nM, human recombinant (HEK-293 cells), read-out: % Inhibition of Binding at Each Transporter or Receptor Target, D2L
[13] = Dopamine transporter, 1st individual result, read-out: % inhibition of control specific binding, 1st
[14] = Dopamine transporter, 2nd individual result, read-out: % inhibition of control specific binding, 2nd
[15] = Dopamine transporter, mean, read-out: % inhibition of control specific binding, Mean
[16] = [3H]BTCP 4 nM, human recombinant (CHO cells), read-out: % Inhibition of Binding at Each Transporter or Receptor Target, DAT
[17] = D2S, 1st individual result, read-out: % inhibition of control specific binding, 1st
[18] = D2S, 2nd individual result, read-out: % inhibition of control specific binding, 2nd
[19] = D2S, mean, read-out: % inhibition of control specific binding, Mean
[20] = [3H]7-OH-DPAT 1 nM, human recombinant (HEK-293 cells), read-out: % Inhibition of Binding at Each Transporter or Receptor Target, D2S
[21] = VMAT2 transporter, single value, read-out: % inhibition of control specific binding, 1st
[22] = [3H]dihydrotetrabenazine 10 nM, rat brain (minus cerebellum), read-out: % Inhibition of Binding at Each Transporter or Receptor Target, VMAT2
[23] = 5-HT transporter, 1st individual result, read-out: % inhibition of control specific binding, 1st
[24] = 5-HT transporter, 2nd individual result, read-out: % inhibition of control specific binding, 2nd
[25] = 5-HT transporter, mean, read-out: % inhibition of control specific binding, Mean
[26] = [3H]imipramine 2 nM, human recombinant (CHO cells), read-out: % Inhibition of Binding at Each Transporter or Receptor Target, SERT
[27] = Norepinephrine transporter, 1st individual result, read-out: % inhibition of control specific binding, 1st
[28] = Norepinephrine transporter, 2nd individual result, read-out: % inhibition of control specific binding, 2nd
[29] = Norepinephrine transporter, mean, read-out: % inhibition of control specific binding, Mean
[30] = [3H]nisoxetine 1 nM, human recombinant (CHO cells), read-out: % Inhibition of Binding at Each Transporter or Receptor Target, NET
[31] = 1st individual result, read-out: % inhibition of control specific binding, 1st
[32] = 2nd individual result, read-out: % inhibition of control specific binding, 2nd
[33] = mean, read-out: % inhibition of control specific binding, Mean

T6 sequence (P23975 whole entry): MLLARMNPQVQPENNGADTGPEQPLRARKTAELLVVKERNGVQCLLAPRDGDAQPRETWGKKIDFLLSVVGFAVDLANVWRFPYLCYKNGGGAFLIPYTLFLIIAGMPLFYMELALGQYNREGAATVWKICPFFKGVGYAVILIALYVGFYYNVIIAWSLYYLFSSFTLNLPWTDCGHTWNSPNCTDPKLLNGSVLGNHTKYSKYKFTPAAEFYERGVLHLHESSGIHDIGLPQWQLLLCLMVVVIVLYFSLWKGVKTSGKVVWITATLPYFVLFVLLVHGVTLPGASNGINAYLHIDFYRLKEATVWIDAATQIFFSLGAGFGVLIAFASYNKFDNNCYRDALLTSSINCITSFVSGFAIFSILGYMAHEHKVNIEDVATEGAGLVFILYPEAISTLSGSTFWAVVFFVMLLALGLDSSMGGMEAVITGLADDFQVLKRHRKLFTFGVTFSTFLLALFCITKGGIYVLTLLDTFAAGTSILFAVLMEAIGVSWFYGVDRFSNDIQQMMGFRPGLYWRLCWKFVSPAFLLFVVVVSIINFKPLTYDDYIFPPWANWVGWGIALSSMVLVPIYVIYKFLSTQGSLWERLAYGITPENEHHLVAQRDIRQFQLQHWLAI
T1 sequence (P14416 whole entry): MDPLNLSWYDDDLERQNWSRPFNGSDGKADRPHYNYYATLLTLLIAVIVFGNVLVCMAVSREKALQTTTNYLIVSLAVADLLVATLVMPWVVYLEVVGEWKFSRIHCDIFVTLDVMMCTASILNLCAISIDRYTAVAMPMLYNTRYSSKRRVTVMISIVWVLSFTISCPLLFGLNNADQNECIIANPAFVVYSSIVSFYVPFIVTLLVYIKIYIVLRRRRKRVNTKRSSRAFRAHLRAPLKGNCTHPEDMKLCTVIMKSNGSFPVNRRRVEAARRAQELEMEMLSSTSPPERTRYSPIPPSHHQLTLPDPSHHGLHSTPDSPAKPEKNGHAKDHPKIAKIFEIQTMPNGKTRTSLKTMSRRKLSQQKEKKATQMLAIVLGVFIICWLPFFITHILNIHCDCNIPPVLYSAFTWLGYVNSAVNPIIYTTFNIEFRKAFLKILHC
T3 sequence (P14416 1-414 isoform P14416-2): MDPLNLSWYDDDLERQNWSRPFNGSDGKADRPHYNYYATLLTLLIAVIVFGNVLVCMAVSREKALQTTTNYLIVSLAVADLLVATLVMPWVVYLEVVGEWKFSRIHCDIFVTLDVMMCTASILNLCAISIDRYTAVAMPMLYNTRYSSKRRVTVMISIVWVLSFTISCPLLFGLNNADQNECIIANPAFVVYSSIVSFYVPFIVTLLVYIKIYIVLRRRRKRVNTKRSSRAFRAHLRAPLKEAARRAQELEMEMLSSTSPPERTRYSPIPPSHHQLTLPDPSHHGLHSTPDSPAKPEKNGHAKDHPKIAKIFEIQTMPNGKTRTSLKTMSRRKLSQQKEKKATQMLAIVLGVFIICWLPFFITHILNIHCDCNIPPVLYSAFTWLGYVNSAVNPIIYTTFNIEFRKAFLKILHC
T2 sequence (Q01959 whole entry): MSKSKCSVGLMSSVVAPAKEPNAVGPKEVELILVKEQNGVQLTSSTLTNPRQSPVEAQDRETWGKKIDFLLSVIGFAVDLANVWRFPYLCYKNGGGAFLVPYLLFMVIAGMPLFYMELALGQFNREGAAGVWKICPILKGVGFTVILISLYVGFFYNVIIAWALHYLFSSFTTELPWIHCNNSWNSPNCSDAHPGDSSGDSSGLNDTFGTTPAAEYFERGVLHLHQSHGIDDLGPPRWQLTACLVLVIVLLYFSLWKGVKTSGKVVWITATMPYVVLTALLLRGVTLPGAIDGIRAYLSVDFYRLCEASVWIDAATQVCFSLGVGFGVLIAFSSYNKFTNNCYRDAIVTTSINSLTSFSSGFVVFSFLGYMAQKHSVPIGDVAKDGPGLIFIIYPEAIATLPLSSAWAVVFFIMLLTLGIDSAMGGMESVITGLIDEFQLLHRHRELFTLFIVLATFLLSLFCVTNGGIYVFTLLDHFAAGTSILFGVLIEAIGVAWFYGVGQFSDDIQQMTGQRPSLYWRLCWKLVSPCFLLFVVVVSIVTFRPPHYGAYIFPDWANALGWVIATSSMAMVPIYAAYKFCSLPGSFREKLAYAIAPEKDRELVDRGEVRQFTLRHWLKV
T4 sequence (Q01827 whole entry): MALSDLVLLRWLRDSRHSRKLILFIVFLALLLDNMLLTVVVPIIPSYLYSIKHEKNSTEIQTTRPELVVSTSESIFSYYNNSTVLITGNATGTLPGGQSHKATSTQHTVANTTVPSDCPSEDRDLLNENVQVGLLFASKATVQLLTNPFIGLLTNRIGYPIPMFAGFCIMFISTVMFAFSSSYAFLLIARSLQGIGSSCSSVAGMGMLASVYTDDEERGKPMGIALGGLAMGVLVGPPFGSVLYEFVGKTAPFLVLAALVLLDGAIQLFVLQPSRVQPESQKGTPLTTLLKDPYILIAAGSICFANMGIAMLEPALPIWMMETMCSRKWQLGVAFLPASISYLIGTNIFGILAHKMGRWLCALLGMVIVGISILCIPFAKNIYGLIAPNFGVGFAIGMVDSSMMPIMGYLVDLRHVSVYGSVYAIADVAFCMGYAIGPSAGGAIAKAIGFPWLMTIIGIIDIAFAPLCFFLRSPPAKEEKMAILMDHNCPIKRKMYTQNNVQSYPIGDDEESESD
T5 sequence (P31645 whole entry): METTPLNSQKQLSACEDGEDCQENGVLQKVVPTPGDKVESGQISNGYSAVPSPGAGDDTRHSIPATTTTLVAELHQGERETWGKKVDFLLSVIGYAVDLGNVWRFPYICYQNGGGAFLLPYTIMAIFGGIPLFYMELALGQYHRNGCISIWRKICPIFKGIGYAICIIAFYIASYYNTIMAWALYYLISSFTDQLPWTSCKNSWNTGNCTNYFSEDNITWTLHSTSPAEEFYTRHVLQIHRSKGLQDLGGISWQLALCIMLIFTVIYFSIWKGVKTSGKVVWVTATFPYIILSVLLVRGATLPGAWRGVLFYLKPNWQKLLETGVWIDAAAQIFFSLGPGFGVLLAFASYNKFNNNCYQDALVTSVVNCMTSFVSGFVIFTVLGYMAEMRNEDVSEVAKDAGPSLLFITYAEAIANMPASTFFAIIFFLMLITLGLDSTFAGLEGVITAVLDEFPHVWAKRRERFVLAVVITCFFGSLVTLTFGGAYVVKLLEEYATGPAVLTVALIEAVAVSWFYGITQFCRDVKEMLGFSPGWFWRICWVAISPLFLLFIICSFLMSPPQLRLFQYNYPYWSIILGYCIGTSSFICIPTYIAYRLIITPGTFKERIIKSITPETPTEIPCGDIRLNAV

NC(=S)OC[C@H](N)Cc1ccccc1 [Compound 8, (R)—O-(2-Amino-3-phenylpropyl) carbamothioate dihydrochloride]
inhibition at 10 µM [1, 9]: -0.5%
inhibition at 10 µM [1, 10]: 2.7%
inhibition at 10 µM [1, 11]: 1.1%
inhibition at 10 µM [1, 12]: 1.1%
inhibition at 10 µM [2, 13]: 67.9%
inhibition at 10 µM [2, 14]: 95.4%
inhibition at 10 µM [2, 15]: 81.6%
inhibition at 10 µM [2, 16]: 81.6%
binding to the dopamine transporter (in words) [2]: substantial
inhibition at 10 µM [3, 17]: 33.5%
inhibition at 10 µM [3, 18]: 21.4%
inhibition at 10 µM [3, 19]: 27.4%
inhibition at 10 µM [3, 20]: 27.4%
inhibition at 10 µM [4, 21]: 6%
inhibition at 10 µM [4, 22]: 6%
inhibition at 10 µM [5, 23]: -1.9%
inhibition at 10 µM [5, 24]: -2.4%
inhibition at 10 µM [5, 25]: -2.1%
inhibition at 10 µM [5, 26]: -2.1%
inhibition at 10 µM [6, 27]: 29.5%
inhibition at 10 µM [6, 28]: 46.1%
inhibition at 10 µM [6, 29]: 37.8%
inhibition at 10 µM [6, 30]: 37.8%
binding to the norepinephrine transporter (in words) [6]: substantial binding
inhibition at 10 µM [7, 31]: 60%
inhibition at 10 µM [7, 32]: 61.3%
inhibition at 10 µM [7, 33]: 60.6%
inhibition at 10 µM [8, 31]: 50.6%
inhibition at 10 µM [8, 32]: 47%
inhibition at 10 µM [8, 33]: 48.8%

N[C@@H](COS(N)(=O)=O)Cc1ccccc1 [Compound 9, (R)-2-Amino-3-phenylpropyl sulfamate hydrochloride]
inhibition at 10 µM [1, 9]: -2.2%
inhibition at 10 µM [1, 10]: -6.8%
inhibition at 10 µM [1, 11]: -4.5%
inhibition at 10 µM [1, 12]: -4.5%
inhibition at 10 µM [2, 13]: 26.4%
inhibition at 10 µM [2, 14]: 44%
inhibition at 10 µM [2, 15]: 35.2%
inhibition at 10 µM [2, 16]: 35.2%
binding to the dopamine transporter (in words) [2]: substantial
inhibition at 10 µM [3, 17]: 45.3%
inhibition at 10 µM [3, 18]: 33.7%
inhibition at 10 µM [3, 19]: 39.5%
inhibition at 10 µM [3, 20]: 39.5%
inhibition at 10 µM [4, 21]: 16%
inhibition at 10 µM [4, 22]: 16%
inhibition at 10 µM [5, 23]: -1.7%
inhibition at 10 µM [5, 24]: -3.7%
inhibition at 10 µM [5, 25]: -2.7%
inhibition at 10 µM [5, 26]: -2.7%
inhibition at 10 µM [6, 27]: -3.7%
inhibition at 10 µM [6, 28]: 14%
inhibition at 10 µM [6, 29]: 5.1%
inhibition at 10 µM [6, 30]: 5.1%
binding to the norepinephrine transporter (in words) [6]: substantial binding
inhibition at 10 µM [7, 31]: 65.7%
inhibition at 10 µM [7, 32]: 70.8%
inhibition at 10 µM [7, 33]: 68.3%
inhibition at 10 µM [8, 31]: 65.8%
inhibition at 10 µM [8, 32]: 60.9%
inhibition at 10 µM [8, 33]: 63.4%

NC(=O)SC[C@H](N)Cc1ccccc1 [Compound 10, (R)—S-(2-Amino-3-phenylpropyl) carbamothioate hydrochloride]
inhibition at 10 µM [1, 9]: 33.7%
inhibition at 10 µM [1, 10]: 35.6%
inhibition at 10 µM [1, 11]: 34.7%
inhibition at 10 µM [1, 12]: 34.7%
inhibition at 10 µM [2, 13]: 85.3%
inhibition at 10 µM [2, 14]: 87.3%
inhibition at 10 µM [2, 15]: 86.3%
inhibition at 10 µM [2, 16]: 86.3%
binding to the dopamine transporter (in words) [2]: substantial
inhibition at 10 µM [3, 17]: 89.5%
inhibition at 10 µM [3, 18]: 90.5%
inhibition at 10 µM [3, 19]: 90%
inhibition at 10 µM [3, 20]: 90%
inhibition at 10 µM [4, 21]: 5%
inhibition at 10 µM [4, 22]: 5%
inhibition at 10 µM [5, 23]: 21.7%
inhibition at 10 µM [5, 24]: 22%
inhibition at 10 µM [5, 25]: 21.9%
inhibition at 10 µM [5, 26]: 21.9%
inhibition at 10 µM [6, 27]: 91.7%
inhibition at 10 µM [6, 28]: 91.7%
inhibition at 10 µM [6, 29]: 91.7%
inhibition at 10 µM [6, 30]: 91.7%
binding to the norepinephrine transporter (in words) [6]: substantial binding
inhibition at 10 µM [7, 31]: 64.4%
inhibition at 10 µM [7, 32]: 46.1%
inhibition at 10 µM [7, 33]: 55.3%
inhibition at 10 µM [8, 31]: 89.3%
inhibition at 10 µM [8, 32]: 92.4%
inhibition at 10 µM [8, 33]: 90.9%
